Results: patent US20230089867A1, “CYCLIC PENTAMER COMPOUNDS AS PROPROTEIN CONVERTASE SUBTILISIN/KEXIN TYPE 9 (PCSK9) INHIBITORS FOR THE TREATMENT OF METABOLIC DISORDER” (Novartis AG, priority 2018, published 2023)
Like-named read-outs stand apart in the source and are kept apart here. Each block holds one molecule with its values, some of them ahead of it.

Columns and labels:
[1] = target: human PCSK9 (Homo sapiens, UniProt Q8NBP7); assay: PCSK9 ligand binding TR-FRET assay (interference with binding of human PCSK9 to human LDLR)
How it was run: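 Threefold compound dilutions were pre-incubated 30 min with PCSK9, after which 4 nM Europium Kryptate-tagged human LDLR ectodomain was added for a further 2 h.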

[2] = from (R)-4-(((1S,2S)-2-((S)-3-((S)-2-((S)-2-((4-chloro-2-(4-(2-((dimethylamino)methyl)-1-methyl-1H-imidazol-5-yl)phenoxy)benzyl)amino)propanamido)-3-methoxy-N-methylpropanamido)-4-(4-chlorophenyl)butanamido)cyclohexyl)(methyl)amino)-3-((6-methylpyridin-2-yl)methyl)-4-oxobutanoic acid; amide bond; 18-membered ring; HATU/HOAt/2,6-lutidine; DCM; 45.0 °C
[3] = amide bond, 18-membered ring, HATU/HOAt/2,6-lutidine

human PCSK9, sequence (Q8NBP7 153-692): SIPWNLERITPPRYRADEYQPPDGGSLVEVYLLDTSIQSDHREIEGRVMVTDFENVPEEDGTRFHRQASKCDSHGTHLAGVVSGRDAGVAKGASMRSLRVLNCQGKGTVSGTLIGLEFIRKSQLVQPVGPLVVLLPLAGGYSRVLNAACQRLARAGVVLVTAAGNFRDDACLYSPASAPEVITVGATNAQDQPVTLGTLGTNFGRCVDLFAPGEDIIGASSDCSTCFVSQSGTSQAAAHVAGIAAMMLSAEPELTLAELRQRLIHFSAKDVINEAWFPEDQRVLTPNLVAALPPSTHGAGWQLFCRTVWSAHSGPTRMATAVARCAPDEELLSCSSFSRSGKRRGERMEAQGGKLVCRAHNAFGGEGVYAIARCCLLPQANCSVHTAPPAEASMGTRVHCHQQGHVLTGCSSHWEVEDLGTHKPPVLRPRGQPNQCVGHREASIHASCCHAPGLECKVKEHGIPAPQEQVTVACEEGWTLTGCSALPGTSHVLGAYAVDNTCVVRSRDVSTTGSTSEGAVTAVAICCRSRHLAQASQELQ
human PCSK9, sequence (Q8NBP7 31-152 partner limits assumed): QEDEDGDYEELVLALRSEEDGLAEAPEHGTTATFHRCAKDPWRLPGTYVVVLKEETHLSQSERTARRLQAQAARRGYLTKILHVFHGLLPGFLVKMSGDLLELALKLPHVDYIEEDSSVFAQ

Max % inhibition ([1]; PCSK9 FRET assay, efficacy (Amax), 100% = 1 uM unlabeled human PCSK9, 0% = DMSO): 104.88%
IC50 ([1]; TR-FRET, human PCSK9 Alexa Fluor 647 / human LDLR extracellular domain-Europium Kryptate, read-out: PCSK9 FRET Assay IC50): 312 nM
Molecule: COC[C@@H]1NC(=O)[C@H](C)N(Cc2ccc(Cl)cc2Oc2ccc(-c3cnc(CN(C)C)n3C)cc2)C(=O)C[C@@H](Cc2cccc(C)n2)C(=O)N(C)[C@H]2CCCC[C@@H]2NC(=O)C[C@H](Cc2ccc(Cl)cc2)N(C)C1=O [Compound 265, (4S,7S,10S,14R,16aS,20aS)-11-(4-chloro-2-(4-(2-((dimethylamino)methyl)-1-methyl-1H-imidazol-5-yl)phenoxy)benzyl)-4-(4-chlorobenzyl)-7-(methoxymethyl)-5,10,16-trimethyl-14-((6-methylpyridin-2-yl)methyl)hexadecahydrobenzo-[l][1,4,7,11,14]pentaazacyclooctadecine-2,6,9,12,15(3H)-pentaone]
ring closure, isolated yield [2]: 31.1%

Molecule: (2S,5S,8S,13S,16R)-16-benzyl-8-(4-chlorobenzyl)-1-(4-ethyl-2-(4-(1-methyl-2-(pyrrolidin-1-ylmethyl)-1H-imidazol-5-yl)phenoxy)benzyl)-5-(methoxymethyl)-2,7,13,14-tetramethyl-1,4,7,11,14-pentaazacyclooctadecane-3,6,10,15,18-pentaone hydrochloride
ring closure, yield after HPLC ([3]; DCM, 0.777 mM, 40.0 °C): 47%

Molecule: (4S,7S,10S,14R,16aS,20aS)-14-Benzyl-11-(4-chloro-2-(4-(2-((dimethylamino)methyl)-1-methyl-1H-imidazol-5-yl)phenoxy)benzyl)-4-(4-chlorobenzyl)-7-(methoxymethyl)-5,16-dimethyl-10-(3-(3,3,4,4-tetrafluoropyrrolidin-1-yl)propyl)hexadecahydrobenzo[l][1,4,7,11,14]pentaazacyclooctadecine-2,6,9,12,15(3H)-pentaone
ring closure, yield after HPLC ([3]; DCM, 0.524 mM, 39.0 °C): 17%

Molecule: (4S,7S,10S,16aS,20aS)-4-(4-chlorobenzyl)-11-(2-(difluoromethoxy)-6-(4-(2-((dimethylamino)methyl)-1-methyl-1H-imidazol-5-yl)phenoxy)benzyl)-7-(methoxymethyl)-5,10,16-trimethylhexadecahydro-benzo[l][1,4,7,11,14]pentaazacyclooctadecine-2,6,9,12,15(3H)-pentaone
ring closure, yield after HPLC ([3]; DCM/NMP 10:1, 0.91 mM, 40.0 °C): 22%
